Experimental data taken from article PMC4702177, “Discovering new mTOR inhibitors for cancer treatment through virtual screening methods and in vitro assays” (Scientific Reports, 2016).
Values joined by “and” are separate entries in the source; they are usually repeats but may differ in a detail not shown here. Identical values can stand only once.

Columns and labels:
[1] = molecular target: T1, human recombinant mTOR kinase (Homo sapiens, UniProt P42345); experiment: In vitro mTOR kinase assay (K-LISA ELISA, p70S6K-GST substrate); assay type: biochemical
T1 construct: a purified recombinant mTOR fragment (amino acids 1360-2549, CBA104-1KIT from Calbiochem); purchased Calbiochem CBA104-1KIT
T1 sequence (P42345 1360-2549): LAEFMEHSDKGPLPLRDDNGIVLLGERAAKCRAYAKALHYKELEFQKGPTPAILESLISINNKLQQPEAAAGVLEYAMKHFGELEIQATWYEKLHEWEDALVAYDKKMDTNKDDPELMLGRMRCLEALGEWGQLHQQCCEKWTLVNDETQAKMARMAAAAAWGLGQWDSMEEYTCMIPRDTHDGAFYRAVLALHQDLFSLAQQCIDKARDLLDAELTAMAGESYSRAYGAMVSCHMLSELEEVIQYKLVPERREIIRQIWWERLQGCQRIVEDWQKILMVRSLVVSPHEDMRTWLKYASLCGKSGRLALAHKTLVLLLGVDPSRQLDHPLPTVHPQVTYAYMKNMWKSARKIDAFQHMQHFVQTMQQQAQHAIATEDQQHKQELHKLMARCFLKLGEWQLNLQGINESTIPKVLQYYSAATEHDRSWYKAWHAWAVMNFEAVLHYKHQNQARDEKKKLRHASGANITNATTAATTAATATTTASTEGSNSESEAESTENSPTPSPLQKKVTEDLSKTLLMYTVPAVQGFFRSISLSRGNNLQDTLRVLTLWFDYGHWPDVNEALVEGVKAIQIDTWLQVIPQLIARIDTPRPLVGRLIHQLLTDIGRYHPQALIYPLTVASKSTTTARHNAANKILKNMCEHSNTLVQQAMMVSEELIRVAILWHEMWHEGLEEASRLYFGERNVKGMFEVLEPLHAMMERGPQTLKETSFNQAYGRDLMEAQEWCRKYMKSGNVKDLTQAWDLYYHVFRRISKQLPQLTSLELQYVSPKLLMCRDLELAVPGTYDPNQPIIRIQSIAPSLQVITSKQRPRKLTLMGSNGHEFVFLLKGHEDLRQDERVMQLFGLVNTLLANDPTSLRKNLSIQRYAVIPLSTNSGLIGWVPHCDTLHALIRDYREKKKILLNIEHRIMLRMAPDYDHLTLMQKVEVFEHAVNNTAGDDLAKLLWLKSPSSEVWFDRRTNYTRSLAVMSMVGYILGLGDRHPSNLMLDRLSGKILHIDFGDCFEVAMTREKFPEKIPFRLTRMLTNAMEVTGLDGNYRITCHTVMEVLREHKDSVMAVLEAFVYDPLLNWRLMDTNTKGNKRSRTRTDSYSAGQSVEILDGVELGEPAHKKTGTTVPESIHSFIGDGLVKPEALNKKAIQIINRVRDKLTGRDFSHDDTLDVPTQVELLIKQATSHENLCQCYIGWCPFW
Protocol: The mTOR kinase inhibitory activities of the 41 final virtual hits were determined using an ELISA-based activity assays that utilize a p70S6K-GST fusion protein as a specific mTOR substrate (see the Experimental Section for details). For the initial screening, all the activities were measured at a concentration of 10 μM.
mTOR activity was evaluated using a purified recombinant mTOR fragment (amino acids 1360-2549, CBA104-1KIT from Calbiochem). The K-LISA^TM mTOR activity kit is an ELISA-based activity assay for detection of phosphorylation of a p70S6K-GST fusion protein (a specific mTOR substrate) in the presence of ATP. The assay was optimized for use with mTOR as described in the Calbiochem protocol. The assay takes place in 96-well plates and can be divided into two phases: an mTOR kinase reaction phase and phosphorylated substrate detection phase.
In the kinase reaction phase, the following components were mixed in the same well: 5 μL of a solution containing 5 μg/mL mTOR substrate (recombinant p70S6K-GST fusion protein) in Tris-buffered saline (1 L TBS: sodium chloride 8.8 g, Tris Base 2.4 g, HCl 13 mL, Tween-20 10 ml, ddH2O), 5 μL ATP solution containing 20 mM ATP diluted in kinase assay buffer (pH 7.4, 0.01% Tween 20, 1 mM EDTA, 10 mM MgCl2, 1 mM DTT), […] of human recombinant mTOR kinase at the optimal concentration (80 ng/well) diluted in kinase assay buffer, and 5 μL of serial dilutions of inhibitors diluted in DMSO and kinase assay buffer. For each inhibitor concentration, the assay was run in triplicate. The final reaction volume was 100 μL per well, and samples incubated for 30 min at room temperature.
The kinase reaction was stopped by adding 10 μL kinase stop solution to each well. The phosphorylated substrate was detected using Anti-p70S6K-pT389 antibody, followed by detection with HRP-Antibody Conjugate and TMB Substrate. Then, ELISA stop solution was added to each well to stop the reaction, and relative mTOR inhibition activity was determined by reading the absorbance at dual wavelengths of 450/540 nm.

C6 (Glioma cell) = experiment: In vitro cell proliferation assay; assay type: cell-based; conditions: C6 glioma, 48 h, highest concentration 100 μM, read-out: IC50 (anti-proliferative)
Protocol: (§1) Most human breast cancer cells and cervical cancer cells become resistant to current chemotherapeutic drugs due to mutation of apoptotic mechanisms. It has been reported that MCF-7 cells are resistant to most of the drugs approved by the US Food and Drug Administration (FDA), including paclitaxel, doxorubicin, 5-fluorouracil, etoposide, and camptothecin[31][32].
(§2) Cell proliferation was measured with an MTS assay (CellTiter 96 Aqueous ONE Solution kit; Promega, Madison, USA). MCF-7, HeLa, MGC-803, C6 and U87 cells in log-phase were seeded (5 × 10^3 cells/well) in 96-well plates for 24 h, and then the medium were replaced with fresh medium containing different concentrations of compounds. […] After incubation for 48 h, the cells were further incubated with 20 μL of MTS for 1–4 h at 37 °C in a humidified incubator with 5% CO2. The absorbance at 490 nm was measured using a mircoplate reader (Model680, Bio-Rad; Hercules, CA, USA). The inhibition rate (%) was calculated as equation (1): […]
(§3) IC50 values were determined from the results of at least three independent tests and calculated from the inhibition curves.

[2] = tested on: HeLa (human cervical cancer cell); experiment: In vitro cell proliferation assay; assay type: cell-based; conditions: Homo sapiens, 48 h, highest concentration 100 μM, read-out: IC50 (anti-proliferative)
Protocol: as §1, §2, §3

[3] = tested on: MCF-7 (human breast cancer cell); experiment: In vitro cell proliferation assay; assay type: cell-based; conditions: Homo sapiens, MCF7, 48 h, 48 h, highest concentration 100 μM, read-out: IC50 (anti-proliferative)
Protocol: as §1, §2, §3

[4] = tested on: MGC-803 (human gastric cancer); experiment: In vitro cell proliferation assay; assay type: cell-based; conditions: Homo sapiens, MGC-803, 48 h, 48 h, highest concentration 100 μM, read-out: IC50 (anti-proliferative)
Protocol: as §1, §2, §3

HeLa cells = experiment: Quantification of apoptotic cells (Hoechst 33342 staining); assay type: cell-based, human; conditions: 24 hours (control 1.9%)
Protocol: To elucidate the mechanisms of cell death induced by 17, we analyzed the effect of 17 on nuclear morphology using Hoechst 33342 staining. […] This observation allowed for clear discrimination of treated cells from untreated non-apoptotic HeLa cells, which have a normal, round, and unpunctuated nucleus. […] The percentage of apoptotic HeLa cells were 6.5% and 7.7% at the concentrations of 2.74 and 5.48 μM, respectively (Fig. 6d). To further confirm the nuclear morphology observation, Western blotting was used to detect caspase-3 activation and PARP cleavage, two biochemical markers of apoptosis. […] The induction of apoptosis is positively correlated with the concentration of compound 17.
[…] Then, the cells were collected, washed with PBS, and fixed in 4% paraformaldehyde for 15 min at room temperature. Finally, the samples were stained with Hoechst33342 (10 μg/mL) for 5 min. Stained nuclei were photographed under a fluorescence microscope with a 20× objective (Nikon).

AKT1 (PKB alpha) = AKT1 (PKB alpha) (Homo sapiens, UniProt P31749); experiment: SelectScreen kinase profiling; assay type: biochemical; conditions: mean ± SD of triplicate
From the text: (§4) To characterize the kinase selectivity of compound 17, we profiled its ability to bind to a panel of 24 structurally related kinases using the SelectScreen Kinase Profiling Service (Life Technologies Corporation, Madison, WI).

AMPK A2/B1/G1 = AMPK A2/B1/G1 (Homo sapiens, UniProt P54646); experiment: SelectScreen kinase profiling; assay type: biochemical; conditions: mean ± SD of triplicate
AMPK A2/B1/G1, sequence (P54646 whole entry): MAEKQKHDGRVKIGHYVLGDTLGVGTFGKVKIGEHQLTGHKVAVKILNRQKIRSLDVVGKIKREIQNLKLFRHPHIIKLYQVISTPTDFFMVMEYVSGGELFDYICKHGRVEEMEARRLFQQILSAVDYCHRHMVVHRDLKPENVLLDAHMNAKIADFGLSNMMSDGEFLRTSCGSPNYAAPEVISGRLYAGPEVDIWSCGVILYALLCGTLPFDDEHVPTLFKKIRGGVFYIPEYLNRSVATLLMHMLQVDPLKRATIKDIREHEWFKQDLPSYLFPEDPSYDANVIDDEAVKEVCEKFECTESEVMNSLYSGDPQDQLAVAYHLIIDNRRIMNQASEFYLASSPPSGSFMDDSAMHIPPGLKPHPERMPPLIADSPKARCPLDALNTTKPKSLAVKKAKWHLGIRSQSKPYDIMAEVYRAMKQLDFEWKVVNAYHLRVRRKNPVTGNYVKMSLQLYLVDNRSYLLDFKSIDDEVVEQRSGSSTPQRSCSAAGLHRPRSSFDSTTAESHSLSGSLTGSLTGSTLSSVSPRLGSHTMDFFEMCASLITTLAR
AMPK A2/B1/G1, sequence (Q9Y478 whole entry partner): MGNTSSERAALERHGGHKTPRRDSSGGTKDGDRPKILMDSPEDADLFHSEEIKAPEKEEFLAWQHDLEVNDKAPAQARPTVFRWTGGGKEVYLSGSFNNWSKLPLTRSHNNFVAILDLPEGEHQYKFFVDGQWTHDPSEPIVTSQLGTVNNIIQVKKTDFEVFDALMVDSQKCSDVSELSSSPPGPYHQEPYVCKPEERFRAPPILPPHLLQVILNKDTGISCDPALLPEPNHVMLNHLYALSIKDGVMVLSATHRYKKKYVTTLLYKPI
AMPK A2/B1/G1, sequence (P54619 whole entry partner): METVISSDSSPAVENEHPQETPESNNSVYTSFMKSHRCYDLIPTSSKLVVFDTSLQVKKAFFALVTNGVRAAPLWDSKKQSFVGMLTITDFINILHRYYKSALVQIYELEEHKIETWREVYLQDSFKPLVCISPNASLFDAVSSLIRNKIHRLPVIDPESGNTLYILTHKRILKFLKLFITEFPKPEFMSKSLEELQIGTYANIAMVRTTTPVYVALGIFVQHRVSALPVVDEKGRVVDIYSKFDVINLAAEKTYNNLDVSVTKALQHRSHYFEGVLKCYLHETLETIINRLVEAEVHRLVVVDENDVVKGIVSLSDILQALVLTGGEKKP
From the text: as §4

CDK2/cyclin A = CDK2/cyclin A (Homo sapiens, UniProt P24941); experiment: SelectScreen kinase profiling; assay type: biochemical; conditions: mean ± SD of triplicate
From the text: as §4

PIK3C3 (hVPS34) = PIK3C3 (hVPS34) (Homo sapiens, UniProt Q8NEB9); experiment: SelectScreen kinase profiling; assay type: biochemical; conditions: mean ± SD of triplicate
From the text: as §4

[5] = molecular target: PIK3CA/PIK3R1 (p110 alpha/p85 alpha) (Homo sapiens, UniProt P42336); experiment: SelectScreen kinase profiling; assay type: biochemical; conditions: mean ± SD of triplicate
PIK3CA/PIK3R1 (p110 alpha/p85 alpha), sequence (P42336 whole entry): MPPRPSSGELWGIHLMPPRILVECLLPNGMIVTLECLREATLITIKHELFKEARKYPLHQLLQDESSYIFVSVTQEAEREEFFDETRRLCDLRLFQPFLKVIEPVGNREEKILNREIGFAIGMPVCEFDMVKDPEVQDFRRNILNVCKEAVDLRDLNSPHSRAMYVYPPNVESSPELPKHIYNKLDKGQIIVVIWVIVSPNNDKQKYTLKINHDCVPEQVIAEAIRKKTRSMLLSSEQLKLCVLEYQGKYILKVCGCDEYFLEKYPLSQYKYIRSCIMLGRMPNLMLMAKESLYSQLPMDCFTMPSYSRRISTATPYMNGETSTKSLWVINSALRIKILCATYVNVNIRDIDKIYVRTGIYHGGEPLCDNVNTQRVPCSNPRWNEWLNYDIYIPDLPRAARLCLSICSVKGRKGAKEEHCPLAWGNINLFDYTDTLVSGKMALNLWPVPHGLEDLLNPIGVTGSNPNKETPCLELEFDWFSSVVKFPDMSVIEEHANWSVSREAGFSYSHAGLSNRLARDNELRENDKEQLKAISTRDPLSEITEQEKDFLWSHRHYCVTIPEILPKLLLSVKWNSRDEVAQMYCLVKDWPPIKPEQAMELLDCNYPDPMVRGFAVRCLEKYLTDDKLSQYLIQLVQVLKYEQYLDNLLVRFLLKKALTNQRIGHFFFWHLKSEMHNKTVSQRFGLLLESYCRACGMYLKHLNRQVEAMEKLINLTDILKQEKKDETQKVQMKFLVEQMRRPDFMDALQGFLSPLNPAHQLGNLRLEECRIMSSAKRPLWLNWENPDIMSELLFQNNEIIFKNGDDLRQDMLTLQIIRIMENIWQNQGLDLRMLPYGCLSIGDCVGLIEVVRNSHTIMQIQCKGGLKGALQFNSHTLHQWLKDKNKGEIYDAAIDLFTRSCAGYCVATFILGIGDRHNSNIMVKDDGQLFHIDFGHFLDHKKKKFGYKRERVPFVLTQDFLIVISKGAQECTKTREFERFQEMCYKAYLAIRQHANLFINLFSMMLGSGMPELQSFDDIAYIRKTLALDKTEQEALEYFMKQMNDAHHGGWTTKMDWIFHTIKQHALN
PIK3CA/PIK3R1 (p110 alpha/p85 alpha), sequence (P27986 whole entry partner): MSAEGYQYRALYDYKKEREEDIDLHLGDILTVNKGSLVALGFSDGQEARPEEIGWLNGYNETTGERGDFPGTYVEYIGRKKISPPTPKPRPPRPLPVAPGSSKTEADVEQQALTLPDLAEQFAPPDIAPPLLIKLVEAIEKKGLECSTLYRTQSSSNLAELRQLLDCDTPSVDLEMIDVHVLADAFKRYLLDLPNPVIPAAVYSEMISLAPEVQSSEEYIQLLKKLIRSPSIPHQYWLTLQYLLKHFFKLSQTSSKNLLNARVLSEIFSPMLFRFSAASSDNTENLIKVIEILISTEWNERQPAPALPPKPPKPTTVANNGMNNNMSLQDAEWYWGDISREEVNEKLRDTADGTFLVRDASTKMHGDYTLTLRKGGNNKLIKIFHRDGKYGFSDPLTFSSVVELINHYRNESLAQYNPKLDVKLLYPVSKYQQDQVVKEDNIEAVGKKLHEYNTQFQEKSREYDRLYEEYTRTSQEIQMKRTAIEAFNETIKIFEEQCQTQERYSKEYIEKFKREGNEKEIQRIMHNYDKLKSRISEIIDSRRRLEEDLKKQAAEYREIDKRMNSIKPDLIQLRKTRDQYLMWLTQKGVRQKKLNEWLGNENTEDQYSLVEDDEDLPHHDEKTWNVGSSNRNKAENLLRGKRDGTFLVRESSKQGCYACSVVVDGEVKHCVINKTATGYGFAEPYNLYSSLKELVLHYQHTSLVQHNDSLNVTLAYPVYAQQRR
From the text: as §4

PRKCA (PKC alpha) = PRKCA (PKC alpha) (Homo sapiens, UniProt P17252); experiment: SelectScreen kinase profiling; assay type: biochemical; conditions: mean ± SD of triplicate
From the text: as §4

PRKCB2 (PKC beta II) = PRKCB2 (PKC beta II) (Homo sapiens, UniProt P05771); experiment: SelectScreen kinase profiling; assay type: biochemical; conditions: mean ± SD of triplicate
PRKCB2 (PKC beta II), sequence (P05771 1-673 isoform P05771-2): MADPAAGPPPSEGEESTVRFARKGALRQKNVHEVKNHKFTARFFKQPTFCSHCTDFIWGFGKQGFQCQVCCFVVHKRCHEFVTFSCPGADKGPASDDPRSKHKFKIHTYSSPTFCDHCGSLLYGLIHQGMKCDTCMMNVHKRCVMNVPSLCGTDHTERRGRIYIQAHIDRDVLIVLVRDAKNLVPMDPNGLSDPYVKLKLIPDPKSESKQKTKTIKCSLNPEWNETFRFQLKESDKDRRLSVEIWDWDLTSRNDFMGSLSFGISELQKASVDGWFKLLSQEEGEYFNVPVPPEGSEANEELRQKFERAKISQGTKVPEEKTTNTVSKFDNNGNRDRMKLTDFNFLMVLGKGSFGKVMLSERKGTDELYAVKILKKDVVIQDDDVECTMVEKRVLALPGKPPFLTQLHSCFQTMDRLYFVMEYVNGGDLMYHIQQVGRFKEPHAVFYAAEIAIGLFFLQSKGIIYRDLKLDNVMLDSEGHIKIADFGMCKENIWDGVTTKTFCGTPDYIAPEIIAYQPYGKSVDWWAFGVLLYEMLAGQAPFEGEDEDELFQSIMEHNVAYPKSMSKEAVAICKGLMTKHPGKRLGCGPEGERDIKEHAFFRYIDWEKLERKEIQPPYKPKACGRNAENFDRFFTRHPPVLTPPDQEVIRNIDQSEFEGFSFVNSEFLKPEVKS
From the text: as §4

PRKCD (PKC delta) = PRKCD (PKC delta) (Homo sapiens, UniProt Q05655); experiment: SelectScreen kinase profiling; assay type: biochemical; conditions: mean ± SD of triplicate
From the text: as §4

## Nc1nn2c(nc(N)c3c(N)n[nH]c32)c1/N=N/c1ccccc1 [Compound 17]
[1]; 10 μM, triplicate measurements
  inhibition at 10 µM: 61%
[1]; mean ± SD of triplicate measurements
  IC50: < 10 µM and 7.59 µM
C6 (Glioma cell)
  IC50: 11.1 µM
[2]
  IC50: 2.74 µM
[3]
  IC50: 1.9 µM
[4]
  IC50: 3.5 µM
HeLa cells; 2.74 μM
  % of apoptotic cells: 6.5%
HeLa cells; 5.48 μM
  % of apoptotic cells: 7.7%
AKT1 (PKB alpha)
  inhibition at 10 µM: 22.7 ± 9.34%
AMPK A2/B1/G1
  inhibition at 10 µM: 33.8 ± 4.29%
CDK2/cyclin A
  inhibition at 10 µM: -1.54 ± 1.35%
PIK3C3 (hVPS34)
  inhibition at 10 µM: -6.75 ± 8.78%
[5]
  inhibition at 10 µM: 56.4 ± 4.16%
PRKCA (PKC alpha)
  inhibition at 10 µM: 9.84 ± 3.05%
PRKCB2 (PKC beta II)
  inhibition at 10 µM: 17.7 ± 4.98%
PRKCD (PKC delta)
  inhibition at 10 µM: -10.5 ± 9.55%
